Data: patent US20200333357A1, “NOVEL TFEB PATHWAY AGONISTS FOR METABOLIC DISEASES AND AGEING” (The Board of Regents of the University of Texas System, priority 2017, published 2020)
Entries after “also recorded” stand apart in the source; their conditions may differ.

Key:
[1] = test system: HeLa cells; test: Cellular ROS level (CellROX Green); type: cell-based, human; conditions: 4 hrs
Source text: SFIGS. 5A-I. Small-molecule activators of TFEB engage different sources of Ca. (SFIG. 5A) HeLa cells were pretreated with or without N-acetyl-cysteine (NAC) for 1 hr and then treated with tert-butyl hydroperoxide (TBHP) or AD for 4 hrs. TBHP and NAC were used as positive and negative controls. A ROS-sensitive DNA dye CellROX Green was used to detect cellular ROS levels after these treatments. Endogenous TFEB localization was also shown. (SFIG. 5B) Quantification of the fluorescent intensity of CellROX Green in cells treated as in a was done by a plate reader. (SFIG. 5C) Quantification of endogenous TFEB nuclear translocation in SFIG. 5A. (SFIG. 5D) Cells were pretreated with or without 25 μM IP3R inhibitor Xestosporine C (Xesto) for 1 hr and then treated with DG, AD and IKA for indicated time. Quantification of TFEB translocation was shown in SFIG. 5E-G (graphs represent mean±s.d. **p<0.01, ***p<0.001, ****p<0.0001). (SFIG. 5H-I) RNA-interference were used to knock down inositol […] receptor type 1 (IP3R1) in GFP-TFEB cells before they were treated with DG, AD and IKA. siLONRF1 was used as a negative control. TFEB translocation percentage was quantified from images as shown in SFIG. 5I (mean±s.d. for n=3 independent experiments, ****p<0.0001). Scale bar, 20 μm.

[2] = test system: mice under fed and fast conditions; test: Short-term starvation and chloroquine-induced acute hepatic lipid accumulation in mice; type: in vivo, mouse; conditions: overnight fast; CQ intraperitoneal; DG oral co-administration
Procedure: SFIGS. […] (SFIG. 6A) The body weight (left y-axis, solid symbols) and food intake (right y-axis, open symbols) measured in normal-diet-fed mice treated with vehicle or 2.5 mg/kg DG. (SFIG. 6B) Drug release curves of AD (upper panel) and IKA (lower panel) in PBS. […] (SFIG. 6F) Cells were treated with various doses DG, AD and IKA for 4 hours, and cell viability was measured immediately or after 72 hours. Dose response curves were simulated using ImageJ. (SFIG. 6G) H&E staining of heart, spleen and kidney sections from mice treated with DG, AD, IKA and their corresponding controls. Scale bar, 100 μm. (SFIG. 6H) H&E staining of liver and heart sections as well as ORO and p62/SQSTM1 IHC staining of liver sections from mice under fed and fast conditions with orally injected DG and intraperitoneally injected CQ, individually and jointly, or their corresponding control (Saline). Scale bar, 50 μm. (SFIG. 6I) The body weight of mice after the treatment described in SFIG. 6H. (SFIGS. 6J-L) Total serum levels of triglyceride, cholesterol and glucose of mice after the treatment described in SFIG. 6G.

[3] = test system: TFEB; test: GFP-TFEB nuclear translocation (high-content screen, dose-response, confocal imaging); type: cell-based, human; conditions: for hit status in the TFEB screen overlapping with the autophagy (GFP-LC3) screen: compounds added for 4 hr, overlap with top 30 hits of autophagy screen; for TFEB nuclear accumulation by AMPK activators: GFP-TFEB HeLa cells
Procedure: GFP-TFEB HeLa cells were seeded in 384-well plates. Compounds were added for 4 hr the following day. Bafilomycin A1 (250 nM) treated cells were used as positive controls and DMSO-treated cells as negative controls. […] Images were collected using 405 nm and 488 nm laser lines with DAPI and FITC emission filters. Images were analyzed using the GE IN Cell Analyzer Workstation software. Briefly, nuclei were segmented using the Hoechst channel and the cytoplasm was segmented using the GFP channel. For each cell, the mean GFP intensity in each compartment was measured and used to calculate the nuclear to cytoplasmic (N/C) TFEB-GFP ratio. The same method as mentioned above was used to generate the top 30 compounds with highest condensed activity values and robust Z score values.
GFP-TFEB HeLa cells treated with compounds or DMSO were fixed and stained with Hoechst. Images from at least 3 different fields per sample were acquired using a 40× objective on a Zeiss confocal microscope and analyzed with ImageJ. 20-30 cells were evaluated from each image for each sample, and 3 independent experiments were performed to generate the graphed values.

[4] = test system: mTORC1; test: TSC2 dependence of mTORC1 inhibition and TFEB activation in p53-/- and p53-/-, TSC2-/- MEFs; type: cell-based, mouse; conditions: p53-/- vs p53-/-

`CC(C)(C)OO` [TBHP, tert-Butyl hydroperoxide, reference compound] was tested, and the ROS production [1] was “comparable ROS production”.
For `CCN(CC)CCCC(C)Nc1ccnc2cc(Cl)ccc12` (stereo not shown) [CQ, chloroquine], the “fast-induced hepatic lipid accumulation” value [2] was “exacerbated”.
In the case of `C[C@@H]1C[C@@H]([C@H](O)CC2CC(=O)NC(=O)C2)C(=O)[C@@H](C)C1` [cycloheximide, reference compound], the “hit status in the TFEB screen overlapping with the autophagy (GFP-LC3) screen” value [3] is reported as “top 18 hits”.
In the case of `CN(C)C(=N)N=C(N)N` [metformin, reference compound], the “TFEB nuclear accumulation by AMPK activators” value [3] is reported as “sufficient to induce TFEB nuclear accumulation”.
`C[C@@H]1O[C@@H](O[C@@H]2C=C3CC[C@@H]4[C@H](CC[C@]5(C)[C@@H](c6ccc(=O)oc6)CC[C@]45O)[C@@]3(C)CC2)[C@H](O)[C@H](O)[C@H]1O` [proscillaridin A, reference compound] was tested, and the “dependence of mTORC1 inhibition / TFEB activation on TSC2” value [4] was “independent” and the “hit status in the TFEB screen overlapping with the autophagy (GFP-LC3) screen” value [3] was “top 18 hits; also recorded: top scoring hits”.
For `NC(=O)c1ncn([C@@H]2O[C@H](COP(=O)(O)O)[C@@H](O)[C@H]2O)c1N` [AICAR, 5-aminoimidazole-4-carboxamide ribonucleotide, reference compound], the “TFEB nuclear accumulation by AMPK activators” value [3] was “sufficient to induce TFEB nuclear accumulation”.
